Molecular target: T1, DLK (Homo sapiens, UniProt Q12852)
T1 construct: N-terminally GST-tagged DLK (catalytic domain amino acid 1-520) (Carna Bioscience); GST (N); purchased Carna Bioscience
T1 sequence (Q12852 1-520): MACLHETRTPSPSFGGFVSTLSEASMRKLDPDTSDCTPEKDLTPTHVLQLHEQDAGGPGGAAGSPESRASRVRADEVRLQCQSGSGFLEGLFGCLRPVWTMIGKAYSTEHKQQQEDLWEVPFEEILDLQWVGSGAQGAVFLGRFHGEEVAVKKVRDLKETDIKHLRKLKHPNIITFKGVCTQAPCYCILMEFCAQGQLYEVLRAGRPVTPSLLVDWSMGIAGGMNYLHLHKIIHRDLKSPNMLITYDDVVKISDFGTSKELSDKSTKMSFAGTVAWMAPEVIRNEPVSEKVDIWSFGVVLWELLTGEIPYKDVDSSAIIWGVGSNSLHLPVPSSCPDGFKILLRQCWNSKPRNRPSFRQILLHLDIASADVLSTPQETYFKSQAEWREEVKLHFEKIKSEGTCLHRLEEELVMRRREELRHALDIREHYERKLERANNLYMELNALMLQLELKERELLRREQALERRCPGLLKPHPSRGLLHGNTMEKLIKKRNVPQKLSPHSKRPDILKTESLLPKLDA
Experiment: DLK TR-FRET assay
Assay type: biochemical
Settings: 5 nM GST-tagged DLK (catalytic domain amino acid 1-520), 40 nM HIS-tagged MKK4 K131M substrate, 30 μM ATP, 60 minutes
Procedure: DLK TR-FRET assay: DLK kinase reactions (20 μL) containing 5 nM N-terminally GST-tagged DLK (catalytic domain amino acid 1-520) (Carna Bioscience), 40 nM N-terminally HIS-tagged MKK4 K131M substrate, and 30 μM ATP in kinase reaction buffer (50 mM HEPES, pH 7.5, 0.01% Triton X-100, 0.01% Bovine γ-Globulins, 2 mM DTT, 10 mM MgCl2 and 1 mM EGTA), and testing compound 1:3 serial diluted starting at 20 uM were incubated at ambient temperature for 60 minutes in 384 well OptiPlate (Perkin Elmer). To quench kinase reactions and detect phosphorylated MKK4, 15 μL of TR-FRET antibody mixture containing 2 nM anti-phosphorylated MKK4 labeled with Europium cryptate (Cisbio) and 23 nM anti-HIS labeled with D2 (Cisbio) in detection buffer (25 mM Tris pH 7.5, 100 mM NaCl, 100 mM EDTA, 0.01% Tween-20, and 200 mM KF) was added to the reaction mixture. The detection mixture was incubated for 3 hours at ambient temperature and the TR-FRET was detected with an EnVision multilabel plate reader (Perkin-Elmer) using the LANCE/DELFIA Dual Enh label from Perkin-Elmer (excitation filter: UV2 (TRF) 320 and emission filters: APC 665 and Europium 615).

Row | SMILES | Ki [nM]
1 | Cc1cc(C2(C#N)CCOCC2)cc(Nc2cc(C#N)ccn2)n1 [Example 64, 2-[4-(4-Cyano-tetrahydro-pyran-4-yl)-6-methyl-pyridin-2-ylamino]-isonicotinonitrile] | 170
2 | CC1CCCN1c1cc(C2CCN(CC3CCOCC3)C2)cc(Nc2cc(C#N)ccn2)n1 (stereo not shown) [Example 115, 2-{6-(2-Methyl-pyrrolidin-1-yl)-4-[1-(tetrahydro-pyran-4-ylmethyl)-pyrrolidin-3-yl]-pyridin-2-ylamino}-isonicotinonitrile] | 0.09
3 | N#Cc1ccnc(Nc2cc(C3CCN(C4COC4)CC3)cc(N3CC4CC(F)(F)C4C3)n2)c1 (stereo not shown) [Example 97, 2-[6-(6,6-Difluoro-3-aza-bicyclo[3.2.0]hept-3-yl)-1′-oxetan-3-yl-1′,2′,3′,4′,5′,6′-hexahydro-[4,4′]bipyridinyl-2-ylamino]-isonicotinonitrile] | 0.6
4 | CC(=O)N1CCC(c2cc(Nc3cc(C4CC4)ccn3)nc(N3CCC[C@H]3C)c2)CC1 [Example 142, 1-[6′-(4-Cyclopropyl-pyridin-2-ylamino)-2′-((R)-2-methyl-pyrrolidin-1-yl)-3,4,5,6-tetrahydro-2H-[4,4′]bipyridinyl-1-yl]-ethanone] | 22
5 | COC1CCN(c2cc(C3CCN(C4COC4)CC3)cc(Nc3cc(C#N)ccn3)n2)C1 (stereo not shown) [Example 88, 2-[6-(3-Methoxy-pyrrolidin-1-yl)-1-oxetan-3-yl-1′,2′,3′,4′,5′,6′-hexahydro-[4,4′]bipyridinyl-2-ylamino]-isonicotinonitrile] | 2.8
6 | Cc1cc(C2CCN(C(=O)OC(C)(C)C)CC2)cc(Nc2cc(C#N)ccn2)n1 [Example 116, 2′-(4-Cyano-pyridin-2-ylamino)-6′-methyl-3,4,5,6-tetrahydro-2H-[4,4′]bipyridinyl-1-carboxylic acid tert-butyl ester] | 215
7 | N#Cc1ccnc(Nc2cc(C3CCN(C4COC4)CC3)cc(N3CC(F)(F)C3)n2)c1 [Example 89, 2-[6-(3,3-Difluoro-azetidin-1-yl)-1′-oxetan-3-yl-1′,2′,3′,4′,5′,6′-hexahydro-[4,4′]bipyridinyl-2-ylamino]-isonicotinonitrile] | 8
8 | N#Cc1ccnc(Nc2cc(C3(C#N)CCOCC3)cc(N3CCCC3=O)n2)c1 [Example 47, 2-[4-(4-Cyano-tetrahydro-pyran-4-yl)-6-(2-oxo-pyrrolidin-1-yl)-pyridin-2-ylamino]-isonicotinonitrile] | 40
9 | N#Cc1ccnc(Nc2cc(C3(C#N)CCNCC3)cc(N3CC(F)C3)n2)c1 [Example 34, 2′-(4-Cyano-pyridin-2-ylamino)-6′-(3-fluoro-azetidin-1-yl)-2,3,5,6-tetrahydro-1H-[4,4′]bipyridinyl-4-carbonitrile] | 1.9
10 | CC(=O)N1CCC(c2cc(Cl)nc(Nc3cc(C#N)ccn3)c2)CC1 [Example 65, 2-(1′-Acetyl-6-chloro-1′,2′,3′,4′,5′,6′-hexahydro-[4,4′]bipyridinyl-2-ylamino)-isonicotinonitrile] | 30
11 | FC(F)(F)c1ccnc(Nc2cc(C3CCN(C4COC4)CC3)ccn2)c1 [Example 120, (1′-Oxetan-3-yl-1′,2′,3′,4′,5′,6′-hexahydro-[4,4′]bipyridinyl-2-yl)-(4-trifluoromethyl-pyridin-2-yl)-amine] | 170
12 | CCc1cc(C2CCN(C3COC3)CC2)cc(Nc2cc(C#N)ccn2)n1 [Example 29, 2-(6-Ethyl-1′-oxetan-3-yl-1′,2′,3′,4′,5′,6′-hexahydro-[4,4′]bipyridinyl-2-ylamino)-isonicotinonitrile] | 18
13 | Cc1cc(C2CCOCC2)cc(Nc2cc(CN)ccn2)n1 [Example 113, (4-Aminomethyl-pyridin-2-yl)-[6-methyl-4-(tetrahydro-pyran-4-yl)-pyridin-2-yl]-amine] | 1600

Continued by falling Ki, values first:

Row | Ki [nM] | SMILES
14 | 1200 | Cc1ccnc(Nc2cc(C3CCN(C(=O)[C@@H]4CCCCN4)CC3)ccn2)c1 [Example 147, (S)-(4-(2-((4-methylpyridin-2-yl)amino)pyridin-4-yl)piperidin-1-yl)(piperidin-2-yl)methanone]
15 | 140 | Cc1cc(C2CCN(S(C)(=O)=O)CC2)cc(Nc2cc(C#N)ccn2)n1 [Example 109, 2-(1′-Methanesulfonyl-6-methyl-1′,2′,3′,4′,5′,6′-hexahydro-[4,4′]bipyridinyl-2-ylamino)-isonicotinonitrile]
16 | 64 | CCc1cc(C2CCN(C(C)=O)CC2)cc(Nc2cc(C(F)F)ccn2)n1 [Example 58, 1-[2′-(4-Difluoromethyl-pyridin-2-ylamino)-6′-ethyl-3,4,5,6-tetrahydro-2H-[4,4′]bipyridinyl-1-yl]-ethanone]
17 | 42.2 | N#Cc1ccnc(Nc2cc(C3CCN(C4COC4)CC3)cc(N3CC4(COC4)C3)n2)c1 [Example 98, 2-[6-(2-Oxa-6-aza-spiro[3.3]hept-6-yl)-1′-oxetan-3-yl-1′,2′,3′,4′,5′,6′-hexahydro-[4,4′]bipyridinyl-2-ylamino]-isonicotinonitrile]
18 | 28 | CCc1cc(C2CCN(C(C)=O)CC2)cc(Nc2cc(C#N)ccn2)n1 [Example 60, 2-(1′-Acetyl-6-ethyl-1′,2′,3′,4′,5′,6′-hexahydro-[4,4′]bipyridinyl-2-ylamino)-isonicotinonitrile]
19 | 8.9 | N#CC1(c2cc(Nc3cc(C(F)F)ccn3)nc(N3CC(F)C3)c2)CCOCC1 [Example 55, 4-[2-(4-Difluoromethyl-pyridin-2-ylamino)-6-(3-fluoro-azetidin-1-yl)-pyridin-4-yl]-tetrahydro-pyran-4-carbonitrile]
20 | 7.3 | N#Cc1ccnc(Nc2cc(C3CCN(C4COC4)CC3)cc(N3CCC4(CCOC4)C3)n2)c1 (stereo not shown) [Example 95, 2-[6-(2-Oxa-7-aza-spiro[4.4]non-7-yl)-1′-oxetan-3-yl-1′,2′,3′,4′,5′,6′-hexahydro-[4,4′]bipyridinyl-2-ylamino]-isonicotinonitrile]
21 | 2.9 | CC(=O)N1CC(c2cc(Nc3cc(C(F)(F)F)ccn3)nc(N3CCC(F)(F)C3)c2)C1 [Example 127, 1-{3-[2-(3,3-Difluoro-pyrrolidin-1-yl)-6-(4-trifluoromethyl-pyridin-2-ylamino)-pyridin-4-yl]-azetidin-1-yl}-ethanone]
22 | 1.8 | N#Cc1ccnc(Nc2cc(C3CCN(C4COC4)CC3)cc(N3CCC[C@@H]3C(F)(F)F)n2)c1 [Example 70, 2-[1′-Oxetan-3-yl-6-((R)-2-trifluoromethyl-pyrrolidin-1-yl)-1′,2′,3′,4′,5′,6′-hexahydro-[4,4′]bipyridinyl-2-ylamino]-isonicotinonitrile]
23 | 1.6 | N#Cc1ccnc(Nc2cc(C3CCOCC3)cc(N3CC4CC4C3)n2)c1 (stereo not shown) [Example 84, 2-[6-(3-Aza-bicyclo[3.1.0]hex-3-yl)-4-(tetrahydro-pyran-4-yl)-pyridin-2-ylamino]-isonicotinonitrile]
24 | 0.9 | N#Cc1ccnc(Nc2cc(C3CCN(C4COC4)CC3)cc(N3CCC4CC43)n2)c1 (stereo not shown) [Example 99, 2-[6-(2-Aza-bicyclo[3.1.0]hex-2-yl)-1′-oxetan-3-yl-1′,2′,3′,4′,5′,6′-hexahydro-[4,4′]bipyridinyl-2-ylamino]-isonicotinonitrile]
25 | 0.7 | N#Cc1ccnc(Nc2cc(C3CCN(C4COC4)CC3)cc(N3CC4CC4C3)n2)c1 (stereo not shown) [Example 92, 2-[6-(3-Aza-bicyclo[3.1.0]hex-3-yl)-1′-oxetan-3-yl-1′,2′,3′,4′,5′,6′-hexahydro-[4,4′]bipyridinyl-2-ylamino]-isonicotinonitrile]
26 | 0.2 | C[C@@H]1CCCN1c1cc(C2CCN(C3COC3)CC2)cc(Nc2cc(C#N)ccn2)n1 [Example 121, 2-[6-((R)-2-Methyl-pyrrolidin-1-yl)-1′-oxetan-3-yl-1′,2′,3′,4′,5′,6′-hexahydro-[4,4′]bipyridinyl-2-ylamino]-isonicotinonitrile]
27 | 0.17 | CN1CCC(C#N)(c2cc(Nc3cc(C#N)ccn3)nc(N3CC4CC4C3)c2)CC1 (stereo not shown) [Example 36, 6′-(3-Aza-bicyclo[3.1.0]hex-3-yl)-2′-(4-cyano-pyridin-2-ylamino)-1-methyl-2,3,5,6-tetrahydro-1H-[4,4′]bipyridinyl-4-carbonitrile]
28 | 0.17 | C[C@@H]1CCCN1c1cc(C2(C#N)CCN(C3COC3)CC2)cc(Nc2cc(C#N)ccn2)n1 [Example 30, 2′-(4-Cyano-pyridin-2-ylamino)-6′-((R)-2-methyl-pyrrolidin-1-yl)-1-oxetan-3-yl-2,3,5,6-tetrahydro-1H-[4,4′]bipyridinyl-4-carbonitrile]

Source: patent publication US9399636B2, “Substituted dipyridylamines and uses thereof” (Genentech, Inc., priority 2012, dated 2016)
